Assay results published in patent US20120277187A1, “Agent for Preventing Infection” (priority 2006, published 2012).
“Also recorded” adds a separate entry of the source.

Tests used:
Type in all cases: in vivo, mouse (Balb/c)
[1] = test system: B/Ibaraki virus (type B influenza virus); assay: Transnasal sphingomyelin with simultaneous type B influenza virus infection in mice (nasal cavity wash virus titer, plaque method with MDCK cell)
Method: (§1) (Verification of the Effect to Prevent Infection with Type A Influenza Virus and Type B Influenza Virus)
(§2) Mice (Balb/c, male, 6 weeks of age) were transnasally infected with A/Guinzhou virus as the type A influenza virus or B/Ibaraki virus as the type B influenza virus, and at the same time, a 100 μg/ml solution of the sphingomyelin (SPM) obtained in Example 1 was transnasally administered at a dose of 5 μl/nasal cavity dose (dose: 0.5 μg), and the preventive effect on the infection with an influenza virus was judged by the virus titer in the nasal cavity washes. In this connection, groups transnasally infected with respective influenza viruses alone were prepared. A plaque method which uses MDCK cell was used in the judgment.

[2] = test system: influenza virus PR 8 (H1N1); assay: Oral administration of sphingomyelin, prevention of influenza virus infection in mice (nasal cavity wash virus titer, plaque method with MDCK cell); conditions: for Nasal cavity virus titer x (PFU/ml: 10^x): 1×10^3 pfu PR 8 (H1N1), nasal cavity washes 3 days after infection
From the text: (Verification of the Effect of Oral Administration of Sphingomyelin on the Prevention of Infection with an Influenza Virus)
A mouse (Balb/c, male, 6 weeks of age) was infected with 1×10^3 pfu in viral quantity of influenza virus PR 8 (H1N1). Before the infection treatment, sphingomyelin was orally administered, and its infection preventive effect was judged by the virus titer in the nasal cavity washes 3 days after the virus infection. In carrying out the oral administration, sphingomyelin was used by dispersing in water. A plaque method which uses MDCK cell was used in the judgment.
This indicates the effect of sphingomyelin to prevent infection with an influenza virus.

[3] = test system: A/Guizhou virus (type A influenza virus); assay: Transnasal sphingomyelin with simultaneous type A influenza virus infection in mice (nasal cavity wash virus titer, plaque method with MDCK cell)
Method: as §1, §2

sphingomyelin [SPM]
Nasal cavity virus titer ([1]; B/Ibaraki virus, transnasal 100 μg/ml, 5 μl/nasal cavity (dose 0.5 μg) at the same time as infection): 2.73 ± 0.06 | Infection preventive effect (in words) ([1]; type B influenza virus, transnasal administration): confirmed | Nasal cavity virus titer x (PFU/ml: 10^x) ([2]; 1 mg oral before infection): 2.23 ± 0.16 PFU/ml: 10^x | Nasal cavity virus titer x (PFU/ml: 10^x) ([2]; 10 mg oral before infection): 2.15 ± 0.29 PFU/ml: 10^x | Nasal cavity virus titer in administration group (in words) ([2]; oral administration group versus control (no administration)): lowered with significance | Nasal cavity virus titer ([3]; A/Guizhou virus, transnasal 100 μg/ml, 5 μl/nasal cavity (dose 0.5 μg) at the same time as infection): 1.99 ± 0.31 | Infection preventive effect (in words) ([3]; type A influenza virus, transnasal administration): confirmed; also recorded: more considerable effect
